Laboratory results published in US11807668B2, “Use of citronellol in preparing preparation for promoting expression of virulence gene Toxa of Pseudomonas aeruginosa” (priority 2021, dated 2023).

Tests used:
[1] = tested on: Pseudomonas aeruginosa PAO1; experiment: Effects of citronellol on the growth of Pseudomonas aeruginosa PAO1 (growth curve, OD600, Bioscreen C); format: cell-based
Method: (§1) Preparation of PAO1[(Pseudomonas aeruginosa) PAO1] bacterial suspension: a culture solution of Pseudomonas aeruginosa PAO1 in an exponential growth phase was sampled, centrifuged, washed once with a PBS buffer, resuspended in PBS, and diluted to 10^8 CFU/mL to obtain the PAO1 bacterial suspension.
An LB culture medium and citronellol […] were added to test tubes respectively, and the PAO1 bacterial suspension in the exponential growth phase was inoculated to reach a total volume of 10 mL respectively. The bacterial concentration of PAO1 was each 10^6′ CFU/mL, and the concentration of citronellol was 0 (control), 0.313 μL/mL, 0.625 μL/mL, 1.25 μL/mL, and 2.5 μL/mL, respectively. Samples from several test groups were added to a honeycomb culture plate dedicated to an automatic growth curve analyzer (Bioscreen C), and 350 μL of culture solution was added to each well, with three parallel for each test group. The honeycomb culture plate was placed in the automatic growth curve analyzer, and cultured over shaking at 37° C. for 3 days, and OD600 was measured every hour. Taking OD600 as the ordinate and a culture time as the abscissa, the growth curve of PAO1 under the action of citronellol was drawn to study the effect of the citronellol on the growth of PAO1. The results were shown as in FIG. 1.

[2] = tested on: key genes of a quorum-sensing system of Pseudomonas aeruginosa and virulence genes regulated thereby (PAO1 cells); experiment: Effects of citronellol on the expression of key quorum-sensing genes and virulence genes regulated thereby (real-time fluorescent quantitative PCR); format: cell-based; details: 1.25 μL/mL citronellol for 5 h
Method: as §1
The PAO1 bacterial suspension in a logarithmic growth phase was added to 50 mL of sterile LB liquid culture medium to reach a final concentration of 10^6 CFU/mL for the bacterial solution. Citronellol (β-citronellol) was added to reach the final concentrations of 0 (three biological replicates in the control group were named A1, A2, and A3, respectively) and 1.25 μL/mL (three biological replicates in the test groups were named B1, B2, B3). Each group was cultured at 37° C. and 180 rpm for 5 h, and centrifuged to collect bacteria, which were then quick-frozen at −80° C. for later use.
Total RNAs were extracted from the bacteria by a Trizol (Thermo Fisher Scientific) kit.
After extraction, the purity of the RNAs were detected with an ultra-micro spectrophotometer (Implen, Munich, Germany). An A260/A280 value of each RNA sample should be between 1.8 and 2.0. Reverse transcription and real-time fluorescent quantitative PCR amplification were carried out by using a PrimeScript RT Master Mix kit (Takara, Dalian, China) and an ETC 811 PCR instrument (Eastwin Life Sciences, Inc.). A q-PCR reaction system included Takara SYBR Premix Ex TaqII (Tli RNaseH Plus) (Code No. RR820A), and PCR procedures included: pre-denaturation at 95° C. for 30 s; and denaturation at 95° C. for 5 s and annealing at 60° C. for 34 s, 40 cycles. Based on 10 gene sequences published on the website of GenBank, primers for q-PCR were designed by using software Primer Premier 5.0, and at the same time, a 16S rRNA gene was used as an internal reference gene.

**Q.** Which results are given for CC(C)=CCCC(C)CCO (stereo not drawn) [citronellol, β-citronellol]?
**A.** time point when the absorbance value of the culture solution differs greatly (time to maximum absorbance) ([1]; 0.313 μL/mL): 26 h; time point when the absorbance value of the culture solution differs greatly (time to maximum absorbance) ([1]; 0.625 μL/mL): 37 h; time point when the absorbance value of the culture solution differs greatly (time to maximum absorbance) ([1]; 1.25 μL/mL): 39 h; time point when the absorbance value of the culture solution differs greatly (time to maximum absorbance) ([1]; 2.5 μL/mL): 48 h; inhibitory effect on the growth of PAO1 ([1]; citronellol at 0.313, 0.625, 1.25 and 2.5 μL/mL, LB, 37° C., 3 days, OD600): a certain yet weak inhibitory effect; difference in lag phase and logarithmic growth phase on the PAO1 growth curves ([1]; citronellol treatment groups at different concentrations (0.313-2.5 μL/mL)): no significant difference; expression of signaling molecule receptor protein gene lasR [2]: significantly up-regulated; expression of signaling molecule receptor protein gene pqsR [2]: significantly down-regulated; expression of signaling molecule synthase gene lasI [2]: significantly up-regulated; expression of signaling molecule synthase gene pgsA [2]: significantly down-regulated; transcription level of lasA [2]: up-regulated, but with a less significant change; transcription level of signaling molecule receptor protein gene rhIR [2]: significantly up-regulated; transcription level of signaling molecule synthase gene rhII [2]: changes a little; transcription level of toxA [2]: significantly up-regulated; transcription of virulence gene chiC [2]: inhibited; transcription of virulence gene lasB [2]: inhibited; transcription of virulence gene phzM [2]: inhibited; transcription of virulence gene psIB [2]: inhibited
